The record followed here is ChEMBL document CHEMBL1142237, “Cytotoxic triterpenoid saponins of Albizia gummifera from the Madagascar rain forest” (J Nat Prod, 2007).

What all share (type): functional, cell-based
The subject of one test is MDA-MB-435. The experiment in a line: Antiproliferative activity against human MDA-MB-435 cells after 96 hrs. The conditions noted are these: MDA-MB-435, 96 h.
The next test has as its system A2780. Description: Antiproliferative activity against human A2780 cells after 96 hrs. The conditions noted are these: A2780, 96 h.
Another test relates to HT-29. The experiment in a line: Antiproliferative activity against human HT29 cells after 96 hrs. The conditions noted are these: HT-29, 96 h.
Another test relates to U-937. Description: Antiproliferative activity against human U937 cells after 96 hrs. The conditions noted are these: U-937, 96 h.
Test [1] is described as follows: Antiproliferative activity against human H522-T1 cells after 96 hrs. The conditions noted are these: H522-T1, 96 h.

What is called IC50 is the concentration that inhibits the measured activity by half. Lower therefore signals greater potency. Turning to `C=C[C@](C)(CC/C=C(\C)C(=O)O[C@H]1[C@H](O)[C@@H](O)[C@H](O[C@](C)(C=C)CC/C=C(\C)C(=O)O[C@H]2[C@H](O)[C@@H](O)[C@H](O[C@](C)(C=C)CC/C=C(/C)C(=O)O[C@H]3C[C@]4(C(=O)O[C@@H]5O[C@H](CO)[C@@H](O)[C@H](O)[C@H]5O[C@@H]5O[C@@H](C)[C@H](O[C@@H]6OC[C@@H](O)[C@H](O)[C@H]6O)[C@@H](O)[C@H]5O)[C@H](O)C[C@]5(C)C(=CC[C@@H]6[C@@]7(C)CC[C@H](O[C@@H]8O[C@H](CO[C@@H]9O[C@H](C)[C@H](O)[C@H](O)[C@H]9O)[C@@H](O)[C@H](O)[C@H]8O[C@@H]8O[C@H](CO)[C@@H](O)[C@H](O)[C@H]8O)C(C)(C)C7CC[C@]65C)[C@@H]4CC3(C)C)O[C@@H]2C)O[C@@H]1C)O[C@@H]1O[C@H](C)[C@@H](O)[C@H](O)[C@H]1O` (stereo not given in full) [GUMMIFERAOSIDE C], the IC50 with MDA-MB-435 was found to be 480 nM; in the test on A2780 it was 260 nM; in the test with HT-29, 610 nM; in the test with U-937, 290 nM; in test [1], 640 nM.
